Tests used:
Assay type in all cases: functional
Rattus norvegicus [1] = assay: Inhibition of passive cutaneous anaphylaxis (PCA) in Charles Rivers Sprague-Dawley rat after intravenous administration; value range from 0.8 to 1.5
Rattus norvegicus [2] = assay: Inhibition of passive cutaneous anaphylaxis (PCA) in Charles Rivers Sprague-Dawley rat after intravenous administration; value range from 0.8 to 1.4
Rattus norvegicus [3] = assay: Inhibition of passive cutaneous anaphylaxis (PCA) in Charles Rivers Sprague-Dawley rat after intravenous administration; value range from 6.2 to 7.8
Rattus norvegicus [4] = assay: Inhibition of passive cutaneous anaphylaxis (PCA) in Charles Rivers Sprague-Dawley rat after intravenous administration; value range from 0.2 to 0.3
Rattus norvegicus [5] = assay: Inhibition of passive cutaneous anaphylaxis (PCA) in Charles Rivers Sprague-Dawley rat after intravenous administration; value range from 1.4 to 2.4
Rattus norvegicus [6] = assay: Inhibition of passive cutaneous anaphylaxis (PCA) in Charles Rivers Sprague-Dawley rat after intravenous administration
Rattus norvegicus [7] = assay: Inhibition of passive cutaneous anaphylaxis (PCA) in Charles Rivers Sprague-Dawley rat after intravenous administration; value range from 1.8 to 2.7
Rattus norvegicus [8] = assay: Inhibition of passive cutaneous anaphylaxis (PCA) in Charles Rivers Sprague-Dawley rat after intravenous administration; value range from 0.1 to 0.4
Rattus norvegicus [9] = assay: Inhibition of passive cutaneous anaphylaxis (PCA) in Charles Rivers Sprague-Dawley rat after intravenous administration; value range from 1.1 to 1.8
Rattus norvegicus [10] = assay: Inhibition of passive cutaneous anaphylaxis (PCA) in Charles Rivers Sprague-Dawley rat after intravenous administration; value range from 1.5 to 2.9
Rattus norvegicus [11] = assay: Inhibition of passive cutaneous anaphylaxis (PCA) in Charles Rivers Sprague-Dawley rat after intravenous administration; value range from 1.9 to 22.5
Rattus norvegicus [12] = assay: Inhibition of passive cutaneous anaphylaxis (PCA) in Charles Rivers Sprague-Dawley rat after intravenous administration; value range from 1.4 to 2.1
Rattus norvegicus [13] = assay: Inhibition of passive cutaneous anaphylaxis (PCA) in Charles Rivers Sprague-Dawley rat after intravenous administration; value range from 0.8 to 1.6
Rattus norvegicus [14] = assay: Inhibition of passive cutaneous anaphylaxis (PCA) in Charles Rivers Sprague-Dawley rat after intravenous administration; value range from 0.4 to 0.9
Rattus norvegicus [15] = assay: Inhibition of passive cutaneous anaphylaxis (PCA) in Charles Rivers Sprague-Dawley rat after intravenous administration; value range from 0.03 to 0.6
Rattus norvegicus [16] = assay: Inhibition of passive cutaneous anaphylaxis (PCA) in Charles Rivers Sprague-Dawley rat after intravenous administration; value range from 0.3 to 0.5
Rattus norvegicus [17] = assay: Inhibition of passive cutaneous anaphylaxis (PCA) in Charles Rivers Sprague-Dawley rat after intravenous administration; value range from 0.3 to 0.8
Rattus norvegicus [18] = assay: Inhibition of passive cutaneous anaphylaxis (PCA) in Charles Rivers Sprague-Dawley rat after intravenous administration; value range from 4.1 to 5.8
Rattus norvegicus [19] = assay: Inhibition of passive cutaneous anaphylaxis (PCA) in Charles Rivers Sprague-Dawley rat after intravenous administration; value range […]
Rattus norvegicus [20] = assay: Inhibition of passive cutaneous anaphylaxis (PCA) in Charles Rivers Sprague-Dawley rat after intravenous administration; value range from 1.6 to 3.0
Rattus norvegicus [21] = assay: Inhibition of passive cutaneous anaphylaxis (PCA) in Charles Rivers Sprague-Dawley rat after intravenous administration; value range from 0.05 to 0.6

CCCc1c(OC)ccc2c(O)c3nnnc-3oc12
ED50 (Rattus norvegicus [1]): 1 mg/kg

CCCc1c(O)ccc2c(O)c3nnnc-3oc12
ED50 (Rattus norvegicus [2]): 1.1 mg/kg

CCCc1ccc(O)c2c(O)c3nnnc-3oc12
ED50 (Rattus norvegicus [3]): 7 mg/kg

CS(=O)(=O)Oc1ccc2c(O)c3nnnc-3oc2c1
ED50 (Rattus norvegicus [4]): 0.2 mg/kg

Oc1ccc2c(O)c3nnnc-3oc2c1
ED50 (Rattus norvegicus [5]): 1.8 mg/kg

CCCc1ccc(OC)c2c(O)c3nnnc-3oc12
ED50 (Rattus norvegicus [6]): > 10 mg/kg

Cc1c(O)ccc2c(O)c3nnnc-3oc12
ED50 (Rattus norvegicus [7]): 2.2 mg/kg

Cc1c(OS(C)(=O)=O)ccc2c(O)c3nnnc-3oc12
ED50 (Rattus norvegicus [8]): 0.2 mg/kg

Oc1c2nnnc-2oc2ccccc12
ED50 (Rattus norvegicus [9]): 1.4 mg/kg

O=C([O-])c1cc(=O)c2c(OCC(O)COc3cccc4oc(C(=O)[O-])cc(=O)c34)cccc2o1.[Na+].[Na+] [CROMOLYN SODIUM]
ED50 (Rattus norvegicus [10]): 2 mg/kg

COc1cccc2oc3nnnc-3c(O)c12
ED50 (Rattus norvegicus [11]): 3.5 mg/kg

Oc1cccc2oc3nnnc-3c(O)c12
ED50 (Rattus norvegicus [12]): 1.7 mg/kg

Cc1cc(C)c2c(O)c3nnnc-3oc2c1C
ED50 (Rattus norvegicus [13]): 1.2 mg/kg

Cc1ccc2oc3nnnc-3c(O)c2c1C
ED50 (Rattus norvegicus [14]): 0.6 mg/kg

COc1ccc2c(O)c3nnnc-3oc2c1
ED50 (Rattus norvegicus [15]): 0.3 mg/kg

COc1ccc2c(O)c3nnnc-3oc2c1C
ED50 (Rattus norvegicus [16]): 0.4 mg/kg

Oc1c2nnnc-2oc2cc3c(cc12)CCCC3
ED50 (Rattus norvegicus [17]): 0.6 mg/kg

Cc1ccc2oc3nnnc-3c(O)c2c1
ED50 (Rattus norvegicus [18]): 5 mg/kg

COc1ccc2oc3nnnc-3c(O)c2c1
ED50 (Rattus norvegicus [19]): 1.7 mg/kg

Oc1c2nnnc-2oc2ccc3c(c12)CCCC3
ED50 (Rattus norvegicus [20]): 2.1 mg/kg

Cc1ccc2c(O)c3nnnc-3oc2c1C
ED50 (Rattus norvegicus [21]): 0.3 mg/kg

Cc1cc2oc3nnnc-3c(O)c2cc1C
ED50 (Rattus norvegicus [16]): 0.4 mg/kg

— ChEMBL document CHEMBL1122330, “Studies on v-triazoles. 7. Antiallergic 9-oxo-1H,9H-benzopyrano[2,3-d]-v-triazoles” (1983)
